Experimental data taken from PubChem BioAssay (NCI).
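96-well plates; 48 h exposure; 5 concentrations. Endpoints by linear interpolation between flanking doses. Not reached: highest tested concentration assigned. Here, GI50 denotes the concentration required for 50% inhibition of growth. At the TGI there is no net growth.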

Key:
Test in all cases: NCI-60 cell line screen, 48 h
[1] = tested on: U251 CNS
[2] = tested on: SF-295 CNS
[3] = tested on: UO-31 renal
[4] = tested on: UACC-257 melanoma
[5] = tested on: SF-268 CNS
[6] = tested on: UACC-62 melanoma
[7] = tested on: LOX IMVI melanoma
[8] = tested on: K-562 leukemia
[9] = tested on: M14 melanoma
[10] = tested on: SK-MEL-28 melanoma
[11] = tested on: CAKI-1 renal
[12] = tested on: HOP-62 NSCLC
[13] = tested on: OVCAR-4 ovarian

Compound	TGI [1] [µM]	TGI [2] [µM]	TGI [3] [µM]	TGI [4] [µM]	TGI [5] [µM]	TGI [6] [µM]	TGI [7] [µM]	TGI [8] [µM]	TGI [9] [µM]	TGI [10] [µM]	TGI [11] [µM]	TGI [12] [µM]	TGI [13] [µM]	GI50 [8] [µM]	GI50 [2] [nM]	GI50 [3] [nM]	GI50 [6] [nM]	GI50 [10] [nM]	GI50 [11] [nM]	GI50 [13] [nM]
CCc1c2cc(OC)c(OC)cc2cc2c3cc(OC)c(OC)cc3cc[n+]12 (tested in a mixture with another compound)	57.2	> 86.7	> 71.6	59.3	41.3	73.8	> 63	> 45.6	> 86.6	> 79.4	> 73.4	> 95.4	> 85.6							
COc1ccc(NC(=S)NNC(=O)c2nsc3ccccc23)cc1	> 100		69.1	> 100	> 100	71.6	> 100	> 100	36.7	> 100		> 100	> 100							
OC(c1ccc(Cl)cc1)(c1ccc(Cl)cc1)c1cncnc1	37.8	37.2	31.3	40.5		30.1	> 100	69.8	32.8	38	36.2	35.3	41.5							
Cc1cn(C2C=CC(COP(=O)(OCc3ccc([N+](=O)[O-])o3)N(C)CCCCCl)O2)c(=O)[nH]c1=O (stereo not given)	18.2	30	31.1	18.4	23.8	17.3	13.5	21.6	17.3	22.4	37	30.9	17.2							
CCCCN(CCCC)CCC(O)c1cc(-c2ccc(C(F)(F)F)cc2)nc(-c2ccc(C(F)(F)F)cc2)c1 (stereo not given)	> 100	> 100	> 100	> 100	> 100	> 100	> 100	> 100	> 100	> 100	> 100	> 100	> 100							
O=C1CCCC/C1=C1/SC(=Nc2ccccc2)C(=Nc2ccccc2)N1c1ccccc1	> 100	> 100	> 100			> 100		> 100	> 100	> 100	> 100	> 100								
COC1CC(OC2CCC3(C)C(=CCC4C3C(OC(C)=O)C(OC(=O)CC(C)C)C3(C)C(C(C)=O)CCC43O)C2)OC(C)C1OC1CC(OC)C(OC2CC(OC)C(OC3OC(C)C(O)C(OC)C3O)C(C)O2)C(C)O1 (stereo not given)	> 100	> 100	> 100	> 100	> 100	> 100	43.5	> 100	> 100	> 100	> 100	> 100	> 100							
Clc1cc2ccccc2c2ccccc12	> 100	> 100	> 100	> 100	> 100	> 100	> 100	> 100	> 100	> 100	> 100	> 100	> 100							
O=NN1C(c2ccccc2)C2CCCC(C2=O)C1c1ccccc1 (stereo not given)	> 84.9	> 84.2	> 76.2	66.2	> 100	59	54.9	55.3		44.3	94.1	56	66.3							
NC1C=NNC1=O (stereo not given)	> 100	> 100	> 100	> 100	> 100	> 100	> 100	> 100	> 100	> 100	> 100		> 100							
O=C(Nn1c(-c2cccs2)nc2ccc(I)cc2c1=O)c1ccccc1	73.1	91.7	93.3	31.1	> 100	57.3	46.9	> 100	> 100	53	51	> 100	80.6	43.8						
Clc1ccc(C2CC(c3cccc(Nc4ccncc4)c3)=NN2c2ccc(Cl)cc2)cc1 (stereo not given)		2.96	2.74			3.04				3.09	2.79		3.08		1580	1420	1660	1670	1460	1660
O=C(O)C1OC1C(=O)O (stereo not given)	> 100	> 100	> 100	> 100	> 100	> 100	> 100	> 100	> 100	> 100	> 100	> 100	> 100							
